Where two headings read alike, the source gives them in different places.

Data on 25 compounds can be found in patent US10144742B2 (Millennium Pharmaceuticals, Inc., priority 2014, dated 2018).

In one experiment the target is hNAMPT protein (Homo sapiens (Human), UniProt P43490). As to the kind of experiment: NAMPT enzyme assay (TR-FRET/HTRF, BodiPY ligand, anti 6His-Tb). The experiment is classed as binding. Conditions: for IC50: NAMPT IC50 range class, read-out: IC50; for inhibition at 1 µM: read-out: Percent Inhibition. The essentials: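 Compound or DMSO was incubated for 1 h at room temperature, protected from light, with BodiPY ligand and hNAMPT labelled by terbium anti-6His antibody. The 520 nm to 486 nm emission ratio after 320 nm excitation gave inhibition versus vehicle, from which concentration-response curves yielded IC50.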
hNAMPT protein, sequence (P43490 whole entry): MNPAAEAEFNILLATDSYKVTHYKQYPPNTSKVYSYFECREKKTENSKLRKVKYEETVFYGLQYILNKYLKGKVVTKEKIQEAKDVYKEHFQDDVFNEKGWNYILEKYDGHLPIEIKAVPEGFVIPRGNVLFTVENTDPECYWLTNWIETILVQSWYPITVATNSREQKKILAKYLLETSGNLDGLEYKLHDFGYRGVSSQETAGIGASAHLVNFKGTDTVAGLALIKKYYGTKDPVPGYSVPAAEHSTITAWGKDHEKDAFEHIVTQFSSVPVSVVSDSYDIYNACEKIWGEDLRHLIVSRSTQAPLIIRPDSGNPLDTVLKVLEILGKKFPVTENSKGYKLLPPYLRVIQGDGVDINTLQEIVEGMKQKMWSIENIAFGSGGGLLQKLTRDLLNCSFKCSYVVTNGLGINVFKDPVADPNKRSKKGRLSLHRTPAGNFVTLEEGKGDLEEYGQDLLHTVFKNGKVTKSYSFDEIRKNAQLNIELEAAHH
Background: Time-resolved FRET reads energy transfer from a long-lived donor to a nearby acceptor.

A further experiment relates to PC3 cells. Nature of the experiment: PC3 growth inhibition (Cell-titer glo, 72 hours). The settings on record: Homo sapiens, PC-3, PC3 cells, 72 hours, Cell-titer glo, read-out: Percent Inhibition (PC3 growth inhibition); for inhibition at 1 µM: compound concentration 1 μM; for inhibition at 1.667 µM: compound concentration 1.667 μM. The experiment is classed as cell-based. A digest of the protocol:
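Compounds in AIM serum-free medium were applied for 72 h at 37 °C, 5% CO2 to PC3 cells plated overnight from RPMI1640 culture. Luminescence after 10 min CellTiter-Glo, normalised to DMSO, gave % viability at 1 μM or 1.667 μM, or GI50/LD50.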

A word on the IC50: it is the concentration that inhibits the measured activity by half. As usually defined, the inhibition is the relative decrease from the control value, in per cent. Consider `NC(=O)c1ccc(-c2nc3ccc(C(=O)NCCCn4ccnc4)cc3nc2-c2ccccc2)cc1` [Compound I-190, 2-(4-carbamoylphenyl)-N-[3-(1H-imidazol-1-yl)propyl]-3-phenylquinoxaline-6-carboxamide], for which the 50% inhibitory concentration (IC50) on hNAMPT protein fell in the range of 100 to 500 nM. The inhibition at 1 µM on hNAMPT protein (compound concentration 1 μM) is 74%; in the experiment with PC3 cells, -6%.
For `O=C(NCCCn1ccnc1)c1ccc2nc(-c3ccccc3)c(NCc3ccccc3)nc2c1` [Compound I-191, 3-(benzylamino)-N-[3-(1H-imidazol-1-yl)propyl]-2-phenylquinoxaline-6-carboxamide], in that order: 2000 to 10000 nM, 16% and 24%.
As to `O=C(NCCCc1c[nH]cn1)c1ccc2nc(-c3ccc(F)cc3)c(-c3ccc(F)cc3)nc2c1` [Compound I-192, 2,3-bis(4-fluorophenyl)-N-[3-(1H-imidazol-4-yl)propyl]quinoxaline-6-carboxamide], the IC50 on hNAMPT protein was 100 to 500 nM. Besides, the inhibition at 1 µM was 78% on hNAMPT protein (compound concentration 1 μM) and -7% with PC3 cells.
Regarding `O=C(NCCCc1cncnc1)c1ccc2nc(N3CCOCC3)c(-c3ccc(F)cc3)nc2c1` [Compound I-193, 3-(4-Fluorophenyl)-2-(morpholin-4-yl)-N-[3-(pyrimidin-5-yl)propyl]quinoxaline-6-carboxamide], at hNAMPT protein, the IC50 was in the range of 100 to 500 nM and the inhibition at 1 µM stood at 73%. Further, the inhibition at 1.667 µM in the experiment on PC3 cells was above 99%.
As to `Cn1cccc1-c1nc2cc(C(=O)NCCCn3ccnc3)ccc2nc1-c1ccccc1` [Compound I-194, N-[3-(1H-imidazol-1-yl)propyl]-3-(1-methyl-1H-pyrrol-2-yl)-2-phenylquinoxaline-6-carboxamide], the IC50 on hNAMPT protein was in the range of 2000 to 10000 nM. Moreover, the inhibition at 1 µM is 30% at hNAMPT protein (compound concentration 1 μM) and 29% in the experiment on PC3 cells.
Take `O=C(NCCCc1ncc[nH]1)c1ccc2nc(N3CCCCC3)c(-c3cccs3)nc2c1` [Compound I-195, N-[3-(1H-imidazol-2-yl)propyl]-2-(piperidin-1-yl)-3-(2-thienyl)quinoxaline-6-carboxamide]: the concentration for half-maximal inhibition (IC50) at hNAMPT protein was below 100 nM. The inhibition at 1 µM on hNAMPT protein (compound concentration 1 μM) is above 99%. Moreover, in the experiment with PC3 cells, the inhibition at 1.667 µM was 2%.
For `COc1cccc(-c2nc3cc(C(=O)NCCc4cccnc4)ccc3nc2N2CCCCC2)c1` [Compound I-196, 3-(3-methoxyphenyl)-2-(piperidin-1-yl)-N-[2-(pyridin-3-yl)ethyl]quinoxaline-6-carboxamide], in that order: below 100 nM, 98% and 2%.
For `COc1cccc(-c2nc3cc(C(=O)NCCCc4cccnc4)ccc3nc2N2CCCCC2)c1` [Compound I-197, 3-(3-methoxyphenyl)-2-(piperidin-1-yl)-N-[3-(pyridin-3-yl)propyl]quinoxaline-6-carboxamide], in that order: below 100 nM, above 99% and 2%.
For `O=C(NCCCc1ncc[nH]1)c1ccc2nc(N3CCCCC3)c(-c3ccc(Cl)cc3)nc2c1` [Compound I-198, 3-(4-chlorophenyl)-N-[3-(1H-imidazol-2-yl)propyl]-2-(piperidin-1-yl)quinoxaline-6-carboxamide], the IC50 on hNAMPT protein is below 100 nM. Besides, the inhibition at 1 µM at hNAMPT protein (compound concentration 1 μM) was above 99%. The inhibition at 1.667 µM in the experiment on PC3 cells is 3%.
For `O=C(NCCCn1ccnc1)c1ccc2nc(N3CCC(N4CCOCC4)CC3)c(-c3ccccc3)nc2c1` [Compound I-199, N-[3-(1H-imidazol-1-yl)propyl]-2-[4-(morpholin-4-yl)piperidin-1-yl]-3-phenylquinoxaline-6-carboxamide], the half-inhibitory concentration (IC50) at hNAMPT protein is below 100 nM. Further, the values for the inhibition at 1 µM at hNAMPT protein (compound concentration 1 μM) and in the experiment on PC3 cells were 101% and 0%, respectively.
As for `Cn1cc2c(n1)CN(c1nc3ccc(C(=O)NCCCn4ccnc4)cc3nc1-c1ccccc1)CC2` [Compound I-200, N-[3-(1H-imidazol-1-yl)propyl]-2-(2-methyl-2,4,5,7-tetrahydro-6H-pyrazolo[3,4-c]pyridin-6-yl)-3-phenylquinoxaline-6-carboxamide], the 50% inhibitory concentration (IC50) at hNAMPT protein was in the range of 100 to 500 nM. For the same compound, the figures for the inhibition at 1 µM at hNAMPT protein (compound concentration 1 μM) and in the experiment on PC3 cells were 85% and -7%, respectively.
With `O=C(NCCCn1ccnc1)c1ccc2nc(-c3cccnc3)c(-c3ccccc3)nc2c1` [Compound I-201, N-[3-(1H-imidazol-1-yl)propyl]-3-phenyl-2-(pyridin-3-yl)quinoxaline-6-carboxamide], on hNAMPT protein, the IC50 lay in the range of 500 to 1000 nM. For the same compound, the inhibition at 1 µM on hNAMPT protein (compound concentration 1 μM) was 62%; with PC3 cells, -7%.
For `O=C(NCCCc1ncc[nH]1)c1ccc2nc(C3=CCC(O)CC3)c(-c3cccs3)nc2c1` (stereo not drawn) [Compound I-202, 2-(4-Hydroxycyclohex-1-en-1-yl)-N-[3-(1H-imidazol-2-yl)propyl]-3-(2-thienyl)quinoxaline-6-carboxamide], the IC50 on hNAMPT protein was below 100 nM. Further, on hNAMPT protein (compound concentration 1 μM), the inhibition at 1 µM was above 99%. Besides, the inhibition at 1.667 µM in the experiment with PC3 cells was determined as 2%.
As to `Cn1ccc(-c2nc3ccc(C(=O)NCCCn4ccnc4)cc3nc2-c2ccccc2)n1` [Compound I-203, N-[3-(1H-imidazol-1-yl)propyl]-2-(1-methyl-1H-pyrazol-3-yl)-3-phenylquinoxaline-6-carboxamide], the half-inhibitory concentration (IC50) on hNAMPT protein fell in the range of 1000 to 2000 nM. Moreover, the inhibition at 1 µM was 37% at hNAMPT protein (compound concentration 1 μM) and -8% with PC3 cells.
Consider `O=C(NCc1cn2cccnc2n1)c1ccc2nc(N3CCC(N4CCOCC4)CC3)c(-c3ccc(F)cc3)nc2c1` [Compound I-204, 3-(4-fluorophenyl)-N-(imidazo[1,2-a]pyrimidin-2-ylmethyl)-2-[4-(morpholin-4-yl)piperidin-1-yl]quinoxaline-6-carboxamide], for which the half-maximal inhibitory concentration (IC50) on hNAMPT protein was below 100 nM. The inhibition at 1 µM on hNAMPT protein (compound concentration 1 μM) is above 99%. The inhibition at 1.667 µM in the experiment with PC3 cells was determined as 63%.
For the compound `CCOC(=O)CCc1ccc(-c2nc3ccc(C(=O)NCCCn4ccnc4)cc3nc2-c2ccccc2)cc1` [Compound I-205, ethyl 3-[4-(6-{[3-(1H-imidazol-1-yl)propyl]carbamoyl}-3-phenylquinoxalin-2-yl)phenyl]propanoate], at hNAMPT protein, the half-inhibitory concentration (IC50) lay in the range of 100 to 500 nM. Also, the inhibition at 1 µM stood at 84% at hNAMPT protein (compound concentration 1 μM) and 104% in the experiment on PC3 cells.
For the compound `O=C(NCCCn1ccnc1)c1ccc2nc(N3CCCC3)c(-c3ccccc3)nc2c1` [Compound I-206, N-[3-(1H-imidazol-1-yl)propyl]-3-phenyl-2-(pyrrolidin-1-yl)quinoxaline-6-carboxamide], the IC50 at hNAMPT protein lay within 100 to 500 nM. Further, the values for the inhibition at 1 µM at hNAMPT protein (compound concentration 1 μM) and with PC3 cells were 75% and -7%, respectively.
`CCN(CC)c1nc2ccc(C(=O)NCCCn3ccnc3)cc2nc1-c1ccccc1` [Compound I-207, 2-(diethylamino)-N-[3-(1H-imidazol-1-yl)propyl]-3-phenylquinoxaline-6-carboxamide]: the IC50 at hNAMPT protein was in the range of 100 to 500 nM. Moreover, the inhibition at 1 µM at hNAMPT protein (compound concentration 1 μM) was 69%; with PC3 cells it was -7%.
Regarding `O=C(NCCCn1ccnc1)c1ccc2nc(-c3ccc4cc[nH]c4c3)c(-c3ccccc3)nc2c1` [Compound I-208, N-[3-(1H-imidazol-1-yl)propyl]-2-(1H-indol-6-yl)-3-phenylquinoxaline-6-carboxamide], the IC50 at hNAMPT protein was 500 to 1000 nM. In addition, the inhibition at 1 µM at hNAMPT protein (compound concentration 1 μM) is 55%; in the experiment on PC3 cells, -6%.
Regarding `O=C(NCCCn1ccnc1)c1ccc2nc(-c3cccc(Cl)c3)c(-c3ccccc3)nc2c1` [Compound I-209, 2-(3-chlorophenyl)-N-[3-(1H-imidazol-1-yl)propyl]-3-phenylquinoxaline-6-carboxamide], the IC50 on hNAMPT protein was 100 to 500 nM. The figures for the inhibition at 1 µM on hNAMPT protein (compound concentration 1 μM) and in the experiment on PC3 cells were 74% and -7%, respectively.
For `O=C(NCCCn1ccnc1)c1ccc2nc(N3CCC(N4CCC(O)CC4)CC3)c(-c3ccccc3)nc2c1` [Compound I-210, 2-(4-hydroxy-1,4′-bipiperidin-1′-yl)-N-[3-(1H-imidazol-1-yl)propyl]-3-phenylquinoxaline-6-carboxamide], in that order: below 100 nM, 95% and -2%.
`O=C(NCCCc1ncc[nH]1)c1ccc2nc(Cl)c(-c3ccc(F)cc3)nc2c1` [Compound I-211, 2-Chloro-3-(4-fluorophenyl)-N-[3-(1H-imidazol-2-yl)propyl]quinoxaline-6-carboxamide]: at hNAMPT protein, the IC50 fell in the range of 100 to 500 nM. Moreover, at hNAMPT protein (compound concentration 1 μM), the inhibition at 1 µM is 79%. For the same compound, the inhibition at 1.667 µM in the experiment with PC3 cells was above 99%.
Consider `O=C(NCCc1ccncc1)c1ccc2nc(-c3ccc(F)cc3)c(-c3ccc(F)cc3)nc2c1` [Compound I-212, 2,3-bis(4-fluorophenyl)-N-[2-(pyridin-4-yl)ethyl]quinoxaline-6-carboxamide], for which, at hNAMPT protein, the IC50 was below 100 nM. For the same compound, the inhibition at 1 µM on hNAMPT protein (compound concentration 1 μM) came out at 95%; in the experiment on PC3 cells it was 101%.
`O=C(NCCCc1ncc[nH]1)c1ccc2nc(N3CCC(O)CC3)c(-c3ccc(F)cc3)nc2c1` [Compound I-213, 3-(4-fluorophenyl)-2-(4-hydroxypiperidin-1-yl)-N-[3-(1H-imidazol-2-yl)propyl]quinoxaline-6-carboxamide]: the half-maximal inhibitory concentration (IC50) at hNAMPT protein was below 100 nM. Moreover, at hNAMPT protein (compound concentration 1 μM), the inhibition at 1 µM stood at 99%. Moreover, the inhibition at 1.667 µM in the experiment with PC3 cells was determined as 2%.
On to `Cc1ccc(-c2nc3ccc(C(=O)NCCCn4ccnc4)cc3nc2-c2ccc(C)cc2)cc1` [Compound I-214, N-[3-(1H-imidazol-1-yl)propyl]-2,3-bis(4-methylphenyl)quinoxaline-6-carboxamide], for which, on hNAMPT protein, the half-maximal inhibitory concentration (IC50) fell in the range of 1000 to 2000 nM. The inhibition at 1 µM on hNAMPT protein (compound concentration 1 μM) was determined as 40%; in the experiment with PC3 cells it was 0%.
